In ChEMBL document CHEMBL1201862, “PubChem BioAssay data set” (2004):
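96-well plates; 48 h exposure; 5 concentrations. Endpoints by linear interpolation between flanking doses. Not reached: highest tested concentration assigned. GI50 marks 50% less growth.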 Calls of active or inactive are those of the source. Rule as the data show it: active = GI50 up to about 1.1 µM and inactive = higher.

How the values were obtained:
Assay in all cases: NCI anticancer screen, dose series, 48 h
[1] = tested on: MCF7
[2] = tested on: HCC 2998
[3] = tested on: OVCAR-5
[4] = tested on: SF-295
[5] = tested on: SN12C
[6] = tested on: IGROV-1
[7] = tested on: SK-OV-3
[8] = tested on: NCI-H522
[9] = tested on: U-251
[10] = tested on: HT-29
[11] = tested on: MDA-N
[12] = tested on: RXF 393
[13] = tested on: SF-268
[14] = tested on: KM12
[15] = tested on: COLO 205
[16] = tested on: UACC-62
[17] = tested on: ACHN
[18] = tested on: UACC-257
[19] = tested on: MDA-MB-231
[20] = tested on: CCRF-CEM
[21] = tested on: MOLT-4
[22] = tested on: CAKI-1
[23] = tested on: 786-0
[24] = tested on: BT-549
[25] = tested on: NCI-H226
[26] = tested on: MDA-MB-435
[27] = tested on: HOP-92
[28] = tested on: UO-31
[29] = tested on: OVCAR-8
[30] = tested on: TK-10
[31] = tested on: HCT-116
[32] = tested on: SW-620
[33] = tested on: M14
[34] = tested on: NCI-H23
[35] = tested on: OVCAR-4
[36] = tested on: A549
[37] = tested on: SK-MEL-5
[38] = tested on: DU-145
[39] = tested on: K562
[40] = tested on: OVCAR-3
[41] = tested on: NCI/ADR-RES
[42] = tested on: SF-539
[43] = tested on: SK-MEL-28
[44] = tested on: HCT-15
[45] = tested on: SR
[46] = tested on: HL-60
[47] = tested on: SNB-75
[48] = tested on: A498
[49] = tested on: LOX IMVI
[50] = tested on: Malme-3M
[51] = tested on: EKVX
[52] = tested on: NCI-H460
[53] = tested on: SNB-19
[54] = tested on: T47D
[55] = tested on: Hs-578T
[56] = tested on: SK-MEL-2
[57] = tested on: HOP-62
[58] = tested on: RPMI-8226
[59] = tested on: PC-3

Measured: GI50

COC(=O)[C@@H](NS(=O)(=O)CC12CCC(CC1)C2(C)C)C(C)(C)C
> 100 µM: [44]
inactive: [1] > 100 µM | [2] > 100 µM | [3] > 100 µM | [4] > 100 µM | [5] > 100 µM | [6] > 100 µM | [7] > 100 µM | [8] > 100 µM | [9] > 100 µM | [10] > 100 µM | [11] > 100 µM | [12] 44.4 µM | [13] > 100 µM | [14] > 100 µM | [15] > 100 µM | [16] > 100 µM | [17] > 100 µM | [18] > 100 µM | [19] > 100 µM | [20] > 100 µM | [21] 4.85 µM | [22] > 100 µM | [23] > 100 µM | [24] > 100 µM | [25] > 100 µM | [26] > 100 µM | [27] > 100 µM | [28] > 100 µM | [29] > 100 µM | [30] > 100 µM | [31] > 100 µM | [32] > 100 µM | [33] > 100 µM | [34] > 100 µM | [35] > 100 µM | [36] > 100 µM | [37] > 100 µM | [38] > 100 µM | [39] > 100 µM | [40] > 100 µM | [41] > 100 µM | [42] > 100 µM | [43] > 100 µM | [45] 23.3 µM | [46] > 100 µM | [47] > 100 µM | [48] > 100 µM | [49] > 100 µM | [50] > 100 µM | [51] > 100 µM | [52] > 100 µM | [53] > 100 µM | [54] > 100 µM | [55] > 100 µM | [56] > 100 µM

OC1c2ccccc2C(O)C2OC12 (stereo unspecified)
> 100 µM: [44]
inactive: [1] > 100 µM | [3] > 100 µM | [4] > 100 µM | [5] > 100 µM | [6] > 100 µM | [7] > 100 µM | [8] > 100 µM | [9] > 100 µM | [10] > 100 µM | [11] > 100 µM | [57] > 100 µM | [12] > 100 µM | [13] > 100 µM | [14] > 100 µM | [15] > 100 µM | [16] > 100 µM | [17] > 100 µM | [18] > 100 µM | [19] > 100 µM | [20] > 100 µM | [21] > 100 µM | [22] > 100 µM | [23] > 100 µM | [24] > 100 µM | [25] 78.5 µM | [26] > 100 µM | [27] > 100 µM | [28] > 100 µM | [29] > 100 µM | [30] > 100 µM | [31] > 100 µM | [32] > 100 µM | [33] > 100 µM | [34] > 100 µM | [35] > 100 µM | [36] > 100 µM | [37] > 100 µM | [38] > 100 µM | [39] > 100 µM | [40] > 100 µM | [41] > 100 µM | [42] > 100 µM | [43] > 100 µM | [45] > 100 µM | [46] > 100 µM | [48] > 100 µM | [49] > 100 µM | [50] > 100 µM | [52] > 100 µM | [53] > 100 µM | [54] > 100 µM | [58] > 100 µM | [56] > 100 µM | [59] > 100 µM
